Measurements from patent US5053392A, “Novel arginine, glycine, aspartic acid derivatives as platelet-aggregation inhibitors” (Rhone-Poulenc Rorer Pharmaceuticals Inc., priority 1989, dated 1991).
Non-standard residues stand in square brackets, D forms with d. Residues, ends and D or L forms follow the SMILES beside them. ξ: configuration not given here. Aze = O=C(O)[C@@H]1CCN1; ξPip = O=C(O)C1CCCCN1; Ava = NCCCCC(=O)O

How the values were obtained:
[1] = tested on: thrombin-stimulated platelets; assay: Inhibition of radiolabeled (125I) fibrinogen binding assay; conditions: for Inhibition of 125I-Fibrinogen Binding to Platelet, inhibition at 50 μg/ml: at 50 μg/ml (footnote *); for IC50: thrombin-stimulated platelets, read-out: Inhibition of 125I-Fibrinogen Binding to Platelet IC50
Description: I. Inhibition of Radiolabeled (125I) Fibrinogen Binding Assay, which is essentially based on the method described in Proc Natl. Acad. Sci. U.S.A. Vol. 83, pp. 5708-5712, August 1986, and is as follows.
Platelets are washed free of plasma constitutes by the albumin density-gradient technique. In each experimental mixture platelets in modified Tyrode's buffer are stimulated with human α-thrombin at 22°-25° C. for 10 minutes (3.125×10" platelets per liter and thrombin at […]). Hirudin is then added at a 25-fold excess for 5 minutes before addition of the radiolabeled ligand and any competing ligand. After these additions, the final platelet count in the mixture is […], bound and free ligand are separated by centrifuging 50 μl of the mixture through 300 μl of 20% sucrose at 12,000×g for 4 minutes. The platelet pellet is then separated from the rest of the mixture to determine platelet-bound radioactivity. Nonspecific binding is measured in mixtures containing an excess of unlabeled ligand. When binding curves are analyzed by Scatchard analysis, nonspecific binding is derived as a fitted parameter from the binding isotherm by means of a computerized program. To determine the concentration of each inhibitory compound necessary to inhibit 50% of fibrinogen binding to thrombin-stimulated platelets (IC50), each compound is tested at 0.176 μgmol/liter (60 μg/ml). The IC50 is derived by plotting residual fibrinogen binding against the logarithm of the sample compound's concentration.

Human Platelets = assay: Inhibition of fibrinogen-mediated platelet aggregation; format: cell-based; conditions: for IC50: thrombin-activated human platelets, rate of aggregation
Description: II. Inhibition of Fibrinogen - Mediated Platelet Aggregation, which is essentially based on the method described in Blood, Vol. 66, No. 4, October 1985, pp. 846-952, and is as follows.
Human Platelets were isolated from freshly drawn whole blood and were suspended in 0.14 mol/L NaCl, 2.7 mmol/L […], 12 mmol/L NaHCO3, 0.42 mmol/L Na2 HPO4, 0.55 mmol/L glucose, and 5 mmol/L Hepes, pH 7.35 at 2×10^8 platelets/ml. The suspension was incubated at 37° C. An aliquot of 0.4 ml of platelet suspension was activated by human thrombin at a final concentration of 2 μg/ml of thrombin for one minute. After one minute the reaction was stopped by a thrombin inhibitor. Serial dilution of the compound being tested was then added to the activated platelet, the reaction was allowed to proceed for one minute, followed by the addition of human fibrinogen at a final concentration of […] of fibrinogen. Platelet aggregation was then recorded by an aggregometer. Rate of aggregation was used to calculate IC50.

Structure (SMILES)	Inhibition of 125I-Fibrinogen Binding to Platelet, inhibition at 50 μg/ml [1]	Inhibition of Fibrinogen Mediated Platelet Aggregation % inhibition at 100 μM (Human Platelets) [%]	IC50 (Human Platelets) [µM]	IC50 [1] [µM]
CC(C)[C@H](NC(=O)[C@H](CC(=O)O)NC(=O)[C@@H]1CCCN1C(=O)[C@@H](N)CCCNC(=N)N)C(=O)O [L-arginyl-L-prolyl-L-aspartyl-L-valine, L-Arginyl-L-prolyl-L-aspartyl-L-valine] (H-RPDV-OH)	* (Inhibited less than 50% at 50 μg/ml)	25	> 100	–
CC(C)[C@H](NC(=O)[C@H](CC(=O)O)NC(=O)[C@@H]1CCN1C(=O)CCCCN)C(=O)O [N-(5-aminopentanoyl)-azetidin-(2S)-carboxyl-Asp-Val] (H-[Ava][Aze]DV-OH)	–	74	59	> 200
CC(C)[C@H](NC(=O)[C@H](CC(=O)O)NC(=O)[C@@H]1CCN1C(=O)[C@@H](N)CCCNC(=N)N)C(=O)O [N-(L-arqinyl)-azetidine-(2S)-carboxyl-Asp-Val] (H-R[Aze]DV-OH)	–	91	13	13
CC(C)[C@H](NC(=O)[C@H](CC(=O)O)NC(=O)C1CCCCN1C(=O)[C@@H](N)CCCNC(=N)N)C(=O)O (stereo partly drawn) [N-[1-(L-arginyl)piperidin-2-yl-carbonyl]-L-aspartyl-L-valine] (H-R[ξPip]DV-OH)	* (Inhibited less than 50% at 50 μg/ml)	73	28.6	–
